Data as given in US20220073475A1, “5-MEMBERED HETEROARYL COMPOUNDS CONTAINING A HYDROXAMATE MOIETY AND THEIR USE” (UNIVERSITE DE LILLE, priority 2019, published 2022).

Test system: OPM2 cells
Assay: CFZ potency increase, ratio of CC50 of CFZ alone / with compound
Format: cell-based, human
Conditions: OPM2, compound at 7.5 μM (Table 5)
From the text: Human multiple myeloma cells OPM2 (ACC 50, DSMZ) are maintained at 0.3-0.7 10^6 cells/mL in RPMI1640 medium supplemented with GlutaMAX™, 10% fetal bovine serum and 1% penicillin-streptomycin.
We developed a cell-based, high content assay allowing the rapid detection and quantification of apoptotic cells. Caspase-3/7 activity was detected in real-time using the NucView™ 488 Caspase-3 substrate (Biotium), where the caspase-3/7 substrate peptide sequence DEVD is attached to a nucleic acid dye. The NucView™ 488 reagent crosses the plasma membrane to enter the cytoplasm, where the dye is unable to bind to DNA and remains non-fluorescent. Once the substrate has been cleaved by activated caspase-3/7 in apoptotic cells, the high-affinity DNA dye is released and migrates to the cell nucleus to stain the nucleus with a bright green fluorescence. All cell nuclei were also labeled with Hoechst 33342 (Ozyme).
For OPM2, briefly, nanoliters of compound and cytotoxic agent in DMSO stock solutions were first transferred and combined in 384-microtiter well plate using an Echo555 liquid handler (Labcyte). The exact volume of each solution to be transferred was calculated to achieve subsequently the target concentration in the 70 μL volume incubate. Final DMSO content was maintained at 0.2%. Then, 70 μL of cells treated with 1 μM NucView™ 488 and 20 ng/mL Hoechst 33342 were distributed to the plates to obtain a final density of 12,000 cells per well. The microplates were incubated at 37° C. and 5% CO2 in an automated LiCONiC STR240 UB cell incubator, and images were acquired at various times at 405 nm and 488 nm with the high-resolution automated confocal microscope INCell 6000 (GE). Four fields per well were read with the 20× objective in a confocal mode. The BioCel workstation was managed by VWorks automation control software
For all cells, Columbus software (Perkin) was used for image quantification and analysis. First, Hoechst 33342 staining was used for an automated detection of nuclei, in which the mean fluorescence intensity for NucView™ 488 was quantified. Inspection of control cells at initial time was used to set a threshold level of NucView™ 488 fluorescence to separate non apoptotic cells from apoptotic cells. Finally, for each well, the result was expressed as percentage of apoptotic cells in the total cell population. CC50 values were calculated from concentration-response curves by a nonlinear regression analysis at four parameters using Excel Fit or GraphPad Prim softwares.
Activity=(% of apoptotic cells with cytotoxic agent in combination with compound of the invention)/(% of apoptotic cells with cytotoxic agent alone). • Ratio of CC50: The CC50 of the cytotoxic agent was calculated in absence and in presence of a compound of the invention.
Activity=(CC50 of agent alone)/(CC50 of agent with compound). • Ratio of AUC. Activity=(Area of the dose-concentration curve of cytotoxic agent combined with one concentration of compound)/(Area of the dose-concentration curve of cytotoxic agent alone). (Lehar J. et al, 2008 (molecular systems biology 4:215)).

Compound	Activity: ratio (CC50 of CFZ alone)/(CC50 of CFZ in combination with compound of the invention)
CC(NC(=O)c1ccc(F)c(F)c1)c1cn([C@@H](CC(=O)NO)Cc2ccc3ccccc3c2)nn1 (stereo in doubt) [Compound 78, 3,4-difluoro-N-[1-[1-[3-(hydroxyamino)-1-(2-naphthylmethyl)-3-oxo-propyl]triazol-4-yl]ethyl]benzamide]	2.0
O=C(C[C@@H](Cc1ccc2ccccc2c1)n1cc(CNS(=O)(=O)c2ccc(F)cc2)nn1)NO [Compound 6, (R)-3-{4-[(4-Fluoro-benzenesulfonylamino)-methyl]-[1,2,3]triazol-1-yl}-N-hydroxy-4-naphthalen-2-yl-butyramide]	1.3
O=C(C[C@@H](Cc1ccc2ccccc2c1)n1nncc1CNC(=O)C1CCCCC1)NO [Compound 13, (R)-Cyclohexanecarboxylic acid [3-(1-hydroxycarbamoylmethyl-2-naphthalen-2-yl-ethyl)-3H-[1,2,3]triazol-4-ylmethyl]-amide]	1.2
O=C(C[C@@H](Cc1ccc2ccccc2c1)n1cc(COCc2ccccc2)nn1)NO [Compound 23, (R)-3-(4-benzyloxymethyl-[1,2,3]triazol-1-yl)-N-hydroxy-4-naphthalen-2-yl-butyramide]	1.1
O=C(C[C@@H](Cc1ccc2ccccc2c1)n1nncc1CNC(=O)CCc1ccccc1)NO [Compound 25, (R)—N-hydroxy-4-naphthalen-2-yl-3-{5-[(3-phenyl-propionylamino)-methyl]-[1,2,3]-triazol-1-yl}-butyramide]	1.4
COc1ccc2cc([C@H](C)C(=O)NCc3cnnn3[C@@H](CC(=O)NO)Cc3ccc4ccccc4c3)ccc2c1 [Compound 26, (R,S)—N-hydroxy-3-(5-{[2-(6-methoxy-naphthalen-2-yl)-propionylamino]-methyl}-[1,2,3]triazol-1-yl)-4-naphthalen-2-yl-butyramide]	1.8
O=C(CC(Cc1ccc2ccccc2c1)c1nc(CNC(=O)c2ccccc2)no1)NO (stereo not drawn) [Compound 28, N-[5-(1-hydroxycarbamoylmethyl-2-naphthalen-2-yl-ethyl)-[1,2,4]oxadiazol-3-ylmethyl]-benzamide]	2.0
O=C(NCc1noc(C(Cc2ccc3ccccc3c2)C(=O)NO)n1)c1ccc(F)cc1 (stereo not drawn) [Compound 44, 4-Fluoro-N-[5-(1-hydroxycarbamoyl-2-naphthalen-2-yl-ethyl)-[1,2,4]oxadiazol-3-ylmethyl]-benzamide]	1.2
O=C(C[C@@H](Cc1ccc2ccccc2c1)n1cc(CCNC(=O)c2ccc(F)c(F)c2)nn1)NO [Compound 57, 3,4-difluoro-N-[2-[1-[(1R)-3-(hydroxyamino)-1-(2-naphthylmethyl)-3-oxo-propyl]triazol-4-yl]ethyl]benzamide]	1.7
O=C(C[C@@H](Cc1ccc2ccccc2c1)n1cc(CC(=O)Nc2ccc(F)c(F)c2)nn1)NO [Compound 74, 3-{4-[(3,4-Difluoro-phenylcarbamoyl)-methyl]-[1,2,3]triazol-1-yl}-N-hydroxy-4-naphthalen-2-yl-butyramide]	1.6
CN(Cc1cn([C@@H](CC(=O)NO)Cc2ccc3ccccc3c2)nn1)C(=O)c1ccc(F)c(F)c1 [Compound 87]	1.7
O=C(C[C@@H](Cc1c[nH]c2ccccc12)n1cc([C@@H]2CCCN2C(=O)c2ccc(F)c(F)c2)nn1)NO [Compound 88, (3R)-3-[4-[(2S)-1-(3,4-difluorobenzoyl)pyrrolidin-2-yl]triazol-1-yl]-4-(1H-indol-3-yl)butanehydroxamic acid]	1.7
O=C(C[C@@H](Cc1c[nH]c2ccccc12)n1cc(C(Cc2ccc(OCc3ccccc3)cc2)NC(=O)c2ccc(F)c(F)c2)nn1)NO (stereo partly drawn) [Compound 89, N-[2-(4-benzyloxyphenyl)-1-[1-[(1R)-3-(hydroxyamino)-1-(1H-indol-3-ylmethyl)-3-oxo-propyl]triazol-4-yl]ethyl]-3,4-difluoro-benzamide]	7.6
O=C(C[C@@H](Cc1c[nH]c2ccccc12)n1cc(C2COCCN2C(=O)c2ccc(F)c(F)c2)nn1)NO (stereo partly drawn) [Compound 90, (3R)-3-[4-[4-(3,4-difluorobenzoyl)morpholin-3-yl]triazol-1-yl]-4-(1H-indol-3-yl)butanehydroxamic acid]	1.4
CC(NC(=O)c1ccc(F)c(F)c1)c1cn([C@@H](CC(=O)NO)Cc2c[nH]c3ccccc23)nn1 (stereo partly drawn) [Compound 91, 3,4-difluoro-N-[1-[1-[(1R)-3-(hydroxyamino)-1-(1H-indol-3-ylmethyl)-3-oxo-propyl]triazol-4-yl]ethyl]benzamide]	1.4
O=C(C[C@@H](Cc1c[nH]c2ccccc12)n1cc([C@H](CO)NC(=O)c2ccc(F)c(F)c2)nn1)NO [Compound 92, 3,4-difluoro-N-[(1R)-2-hydroxy-1-[1-[(1R)-3-(hydroxyamino)-1-(1H-indol-3-ylmethyl)-3-oxo-propyl]triazol-4-yl]ethyl]benzamide]	1.7
O=C(C[C@@H](Cc1ccc2ccccc2c1)n1cc(C2COCCN2C(=O)c2ccc(F)c(F)c2)nn1)NO (stereo partly drawn) [Compound 95, (3R)-3-[4-[4-(3,4-difluorobenzoyl)morpholin-3-yl]triazol-1-yl]-4-(2-naphthyl)butanehydroxamic acid]	2.1
O=C(C[C@@H](Cc1ccc2ccccc2c1)n1cc([C@H](CO)NC(=O)c2ccc(F)c(F)c2)nn1)NO [Compound 96, 3,4-difluoro-N-[(1R)-2-hydroxy-1-[1-[(1R)-3-(hydroxyamino)-1-(2-naphthylmethyl)-3-oxo-propyl]triazol-4-yl]ethyl]benzamide]	1.4
CC(C)CN(Cc1cn([C@@H](CC(=O)NO)Cc2c[nH]c3ccccc23)nn1)C(=O)c1ccc(F)c(F)c1 [Compound 98, 3,4-difluoro-N-[[1-[(1R)-3-(hydroxyamino)-1-(1H-indol-3-ylmethyl)-3-oxo-propyl]triazol-4-yl]methyl]-N-isobutyl-benzamide]	2.0
CC(C)CCN(Cc1cn([C@@H](CC(=O)NO)Cc2c[nH]c3ccccc23)nn1)C(=O)c1ccc(F)c(F)c1 [Compound 99, 3,4-difluoro-N-[[1-[(1R)-3-(hydroxyamino)-1-(1H-indol-3-ylmethyl)-3-oxo-propyl]triazol-4-yl]methyl]-N-isopentyl-benzamide]	2.5
O=C(C[C@@H](Cc1cnc2ccccc2c1)n1cc(CNC(=O)c2ccc(F)c(F)c2)nn1)NO [Compound 143, (R)-3,4-difluoro-N-((1-(4-(hydroxyamino)-4-oxo-1-(quinolin-3-yl)butan-2-yl)-1H-1,2,3-triazol-4-yl)methyl)benzamide]	1.1
O=C(C[C@@H](Cc1c[nH]c2ccccc12)n1cc(C(Cc2ccc(O)cc2)NC(=O)c2ccc(F)c(F)c2)nn1)NO (stereo partly drawn) [Compound 146, 3,4-Difluoro-N-[1-[1-[(1R)-3-(hydroxyamino)-1-(1H-indol-3-ylmethyl)-3-oxo-propyl]triazol-4-yl]-2-(4-hydroxyphenyl)ethyl]benzamide]	1.4
CC(NC(=O)c1ccc(F)cc1)c1cn([C@@H](CC(=O)NO)Cc2ccc3ccccc3c2)nn1 (stereo partly drawn) [Compound 164, 4-fluoro-N-(1-(1-((R)-4-(hydroxyamino)-1-(naphthalen-2-yl)-4-oxobutan-2-yl)-1H-1,2,3-triazol-4-yl)ethyl)benzamide]	2.0

Same assay, conditions: OPM2, compound at 7.5 μM (Table 6)

Compound	Activity: ratio (CC50 of CFZ alone)/(CC50 of CFZ in combination with compound of the invention)
O=C(C[C@@H](Cc1c[nH]c2ccccc12)n1cc(C(Cc2ccc(OCc3ccccc3)cc2)NC(=O)c2ccc(F)c(F)c2)nn1)NO (stereo partly drawn) [Compound 89, N-[2-(4-benzyloxyphenyl)-1-[1-[(1R)-3-(hydroxyamino)-1-(1H-indol-3-ylmethyl)-3-oxo-propyl]triazol-4-yl]ethyl]-3,4-difluoro-benzamide]	7.6
